What all share (assay type): in vivo
For assay [1], the system named is Rhipicephalus microplus larvae (strain Parkhurst, resistant against synthetic pyrethroids). Description: Rhipicephalus (Boophilus) microplus in-vitro contact test, larval cattle tick. The note with it: 5 μg/cm^2 (=500 g/ha), after 48 hours, read-out: efficacy (larvae dead or moribund). In a few lines: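 Efficacy is read at 48 h from negative geotactic behaviour after larvae are patted to the tube bottom, expressed as percentage dead or moribund. Larvae (20-50) sit in glass tubes whose walls carry an evaporated acetone film of compound (900 ppm corresponds to 5 μg/cm^2), kept at 27° C., 85% relative humidity.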

Assay [2] relates to adult engorged female ticks (Rhipicephalus microplus). Description: Rhipicephalus (Boophilus) microplus injection test. The conditions noted are these: 168 h, egg deposition after 7 days, read-out: efficacy (infertile eggs); for pest or weed control at 0.004 mg: 4 μg/animal. The method in brief: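 Five adult engorged female ticks each injected into the abdomen with 1 μL of compound in DMSO, then kept in a climate chamber. Fertile egg deposition assessed after 7 days, with unclear eggs held until hatching around 42 days; efficacy 100% means all eggs infertile, 0% all fertile.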

Assay [3] concerns adult cat fleas (Ctenocephalides felis). As to the kind of experiment: Ctenocephalides felis in-vitro contact test, adult cat flea. The conditions noted are these: 5 μg/cm^2 (=500 g/ha), after 48 hours. In a few lines:
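Acetone solutions of compound were coated onto inner walls of glass tubes (900 ppm giving 5 μg/cm^2) and dried; 5-10 adult C. felis were then held 48 h at room temperature. Efficacy = % fleas dead or moribund, judged by inability to escape a 45-50° C heating plate within 5 min.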

In assay [4] the test system is adult unfed cat fleas (Ctenocephalides felis). Description: Ctenocephalides felis oral test. The conditions noted are these: 48 h. The method in brief:
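About 20 adult unfed fleas fed through parafilm on cattle blood containing compound (DMSO stock diluted in blood), blood held at 37 °C and fleas at room temperature. Mortality (%) scored after 2 days.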

Assay [5] has as its system larvae of the banded cucumber beetle (Diabrotica balteata). Description: Diabrotica balteata spray test. The conditions noted are these: 168 h, 100 g/ha (=32 μg/well), wheat seeds, after 7 days, read-out: efficacy (seedling growth). In a few lines:
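Wheat seeds germinated 1 day on agar were sprayed with compound in acetone/dimethylformamide with alkylarylpolyglycol ether emulsifier, diluted in emulsifier-containing water. Each unit then received 10-20 larvae, and % efficacy was scored after 7 days.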

The test system of assay [6] is green peach aphid (Myzus persicae). As to the kind of experiment: Myzus persicae oral test. The note with it: 120 h. In a few lines:
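Compound was dissolved in acetone, diluted with water and mixed into IPL41 insect medium with sugar under a parafilm seal. A mixed aphid population fed through the parafilm, and mortality (%) was scored after 5 days.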

The test system of assay [7] is fall armyworm larvae (Spodoptera frugiperda). As to the kind of experiment: Spodoptera frugiperda spray test (maize leaf sections). The note with it: 168 h. In a few lines: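 Maize leaf sections sprayed with compound in acetone/dimethylformamide, diluted in water with 1000 ppm alkylarylpolyglycol ether emulsifier. Dried sections infested with fall armyworm larvae. Mortality (%) scored after 7 days; 100% = all caterpillars killed.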

For assay [8], the system named is adult flies Musca domestica strain WHO-N. As to the kind of experiment: Musca domestica test (MUSCDO surface treatment & contact assay). The note with it: 24 hours after contact, read-out: efficacy (mortality); for mortality at 4 mg/m2: surface concentration 4 mg/m^2, 30 min exposure; for mortality at 20 mg/m2: surface concentration 20 mg/m^2, 30 min exposure. The method in brief:
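Compound in acetone at 2 mg/ml with 2000 ppm RME pipetted onto glazed tile; after acetone evaporates, adult WHO-N flies exposed on dried surface for 30 min. Percent mortality scored 24 h after contact.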

For orientation: mortality means the percentage killed. As to `C[C@H](NC(=O)c1cc(C(F)(F)F)cc(C(F)(F)F)c1)c1ncnn1-c1ncc(C#N)s1` [I-2], in assay [1], the pest or weed control at 5 µg/cm2 is 100%. In assay [2], the pest or weed control at 0.004 mg came to 100%. In addition, in assay [2] (20 μg/animal), the pest or weed control at 0.02 mg is 100%. The “efficacy (fleas dead or moribund)” value in assay [3] turned out to be 80%. In assay [4], this compound registered a mortality at 100 ppm of 100%. The pest or weed control at 32 µg/disc, 100 g/ha in assay [5] worked out at 100%. This compound also registered a mortality at 4 ppm in assay [6] of 100%. Besides, the mortality at 100 g/ha in assay [7] was 100%. In addition, in assay [8], the mortality at 4 mg/m2 was in the range of 90 to 100% and the mortality at 20 mg/m2 was 80 to 100%.

With `Cc1nc([C@H](C)NC(=O)c2cc(C(F)(F)F)cc(C(F)(F)F)c2)n(-c2ncc(C(=O)N(C)CC3CC3)s2)n1` [I-4], the pest or weed control at 5 µg/cm2 in assay [1] was 100%. The pest or weed control at 0.004 mg in assay [2] is 100%. Further, the “efficacy (fleas dead or moribund)” value in assay [3] is reported as 100%. Further, in assay [4], the mortality at 100 ppm amounted to 100%. In assay [5], the pest or weed control at 32 µg/disc, 100 g/ha came to 100%. Besides, the mortality at 4 ppm in assay [6] came to 100%. Moreover, the mortality at 100 g/ha in assay [7] amounted to 100%. Further, in assay [8], the mortality at 20 mg/m2 was 80 to 100%.

Turning to `Cc1nc([C@H](C)NC(=O)c2cc(C(F)(F)F)cc(C(F)(F)F)c2)n(-c2ncc(C(=O)N(C)C)s2)n1` [I-5, 2-(5-{(1S)-1-[3,5-bis(trifluoromethyl)benzamido]ethyl}-3-methyl-1H-1,2,4-triazol-1-yl)-N,N-dimethyl-1,3-thiazole-5-carboxamide], the pest or weed control at 5 µg/cm2 in assay [1] turned out to be 100%. In addition, the pest or weed control at 0.004 mg in assay [2] is 100%. For the same compound, in assay [3], the “efficacy (fleas dead or moribund)” value was 100%. In assay [4], this compound showed a mortality at 100 ppm of 100%. The pest or weed control at 32 µg/disc, 100 g/ha in assay [5] was 100%. The compound also showed a mortality at 4 ppm in assay [6] of 100%. The compound also displayed a mortality at 100 g/ha in assay [7] of 100%. Further, the mortality at 4 mg/m2 in assay [8] was in the range of 90 to 100%.

Turning to `CCN(C)C(=O)c1cnc(-n2nc(C)nc2[C@H](C)NC(=O)c2cc(C(F)(F)F)cc(C(F)(F)F)c2)s1` [I-6], the pest or weed control at 5 µg/cm2 in assay [1] stood at 100%. The pest or weed control at 0.004 mg in assay [2] turned out to be 100%. In addition, the “efficacy (fleas dead or moribund)” value in assay [3] is given as 100%. This compound also yielded a mortality at 100 ppm in assay [4] of 100%. In addition, the pest or weed control at 32 µg/disc, 100 g/ha in assay [5] came out at 100%. Further, in assay [6], the mortality at 4 ppm was 100%. In addition, the mortality at 100 g/ha in assay [7] worked out at 100%. Further, in assay [8], the mortality at 4 mg/m2 lay in the range of 90 to 100% and the mortality at 20 mg/m2 fell in the range of 80 to 100%.

For `Cc1nc([C@H](C)NC(=O)c2cc(C(F)(F)F)cc(C(F)(F)F)c2)n(-c2ncc(C(=O)N(C)CC#N)s2)n1` [I-9], the pest or weed control at 5 µg/cm2 in assay [1] was found to be 100%. In addition, the pest or weed control at 0.004 mg in assay [2] is 100%. Besides, the “efficacy (fleas dead or moribund)” value in assay [3] came to 100%. In assay [4], this compound came in with a mortality at 100 ppm of 100%. Further, the pest or weed control at 32 µg/disc, 100 g/ha in assay [5] came out at 100%. In assay [6], this compound had a mortality at 4 ppm of 100%. For the same compound, the mortality at 100 g/ha in assay [7] turned out to be 100%. For the same compound, the mortality at 20 mg/m2 in assay [8] fell in the range of 80 to 100%.

For the compound `Cc1nc([C@H](C)NC(=O)c2cc(C(F)(F)F)cc(C(F)(F)F)c2)n(-c2ncc(C(N)=O)s2)n1` [I-21, 2-(5-{(1S)-1-[3,5-bis(trifluoromethyl)benzamido]ethyl}-3-methyl-1H-1,2,4-triazol-1-yl)-1,3-thiazole-5-carboxamide], the pest or weed control at 5 µg/cm2 in assay [1] worked out at 100%. Further, the pest or weed control at 0.004 mg in assay [2] amounted to 100%. The “efficacy (fleas dead or moribund)” value in assay [3] was determined as 100%. The compound further yielded a mortality at 100 ppm in assay [4] of 100%. The pest or weed control at 32 µg/disc, 100 g/ha in assay [5] is 100%. The compound further came in with a mortality at 4 ppm in assay [6] of 100%. The same compound yielded a mortality at 100 g/ha in assay [7] of 100%. For the same compound, in assay [8], the mortality at 4 mg/m2 lay within 90 to 100% and the mortality at 20 mg/m2 lay in the range of 80 to 100%.
